US20240238281A1, “PIPERAZINE DERIVATIVES AND APPLICATION THEREOF” (priority 2021, published 2024)
pEC50: −log10 of the molar value. Where a name gives a salt, the structure may show the parent alone. Read-outs that look alike come from different tables or passages of the source.

Key:
Assay type in all cases: cell-based
[1] = biological target: T1, MC5R (Homo sapiens, UniProt P33032); experiment: In vitro activity of MCR receptors, intracellular cAMP signal (HEK293T/MCR cell line), MC5R
T1 construct: expressed in transfected cells
T1 sequence (P33032 whole entry): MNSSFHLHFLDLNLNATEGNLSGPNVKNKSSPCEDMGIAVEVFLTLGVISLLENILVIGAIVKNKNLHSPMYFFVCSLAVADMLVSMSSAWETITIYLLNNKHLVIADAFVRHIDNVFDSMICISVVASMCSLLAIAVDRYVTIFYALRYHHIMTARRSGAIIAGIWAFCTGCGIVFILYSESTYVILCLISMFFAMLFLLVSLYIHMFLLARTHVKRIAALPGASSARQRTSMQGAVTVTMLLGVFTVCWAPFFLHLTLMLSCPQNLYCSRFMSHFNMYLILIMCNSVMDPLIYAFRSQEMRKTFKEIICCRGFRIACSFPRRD
Experimental: (§1) Test purpose: to evaluate the agonistic effect of the compound on MCRs by detecting intracellular cAMP signal changes.
(§2) Cells were resuspended with 1×PBS+500 μM IBMX. 10 μL of the cell suspension was added into a 384-well plate to be tested, and the cell concentration was adjusted to 1×10^4 cells per well for later use. A pre-prepared solution of the compound to be tested was added, and dimethyl sulfoxide of the same volume was added to blank control wells. The test plate was centrifuged at 300 rpm for 1 minute, incubated at 37° C. for 30 minutes, and added with 5 μL of cAMP-d2 and 5 μL of a CAMP-cry antibody detection reagent. The test plate was centrifuged at 300 rpm for 1 minute, and incubated at room temperature for 60 minutes. The test plate was placed in the Envision multifunctional microplate reader for reading, with a detection wavelength of 665/615 nm.

[2] = biological target: T2, MC1R (Homo sapiens, UniProt Q01726); experiment: In vitro activity of MCR receptors, intracellular cAMP signal (HEK293T/MCR cell line), MC1R
T2 construct: expressed in transfected cells
T2 sequence (Q01726 whole entry): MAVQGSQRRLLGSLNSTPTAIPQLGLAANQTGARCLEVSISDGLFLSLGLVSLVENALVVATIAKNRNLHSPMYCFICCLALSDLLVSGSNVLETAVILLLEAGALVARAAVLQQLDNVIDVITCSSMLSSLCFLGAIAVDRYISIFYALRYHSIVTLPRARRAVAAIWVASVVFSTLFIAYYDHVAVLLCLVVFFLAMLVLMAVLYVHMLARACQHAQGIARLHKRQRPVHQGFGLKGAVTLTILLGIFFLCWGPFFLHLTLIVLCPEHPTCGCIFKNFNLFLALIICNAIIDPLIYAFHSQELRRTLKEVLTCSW
Experimental: as §1
as §2, with “minutes.” for “minutes. The test plate was placed in the Envision multifunctional microplate reader for reading, with a detection wavelength of 665/615 nm.”

[3] = biological target: T3, MC4R (Homo sapiens, UniProt P32245); experiment: In vitro activity of MCR receptors, intracellular cAMP signal (HEK293T/MCR cell line), MC4R
T3 construct: expressed in transfected cells
T3 sequence (P32245 whole entry): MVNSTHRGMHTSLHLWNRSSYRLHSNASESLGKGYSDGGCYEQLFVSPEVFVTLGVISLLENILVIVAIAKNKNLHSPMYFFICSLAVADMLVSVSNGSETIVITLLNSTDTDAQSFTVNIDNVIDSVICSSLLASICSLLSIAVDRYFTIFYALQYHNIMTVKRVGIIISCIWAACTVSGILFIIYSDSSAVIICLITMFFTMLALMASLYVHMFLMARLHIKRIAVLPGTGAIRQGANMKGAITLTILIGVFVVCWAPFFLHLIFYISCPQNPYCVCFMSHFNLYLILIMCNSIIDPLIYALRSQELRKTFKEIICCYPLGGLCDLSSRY
Experimental: as §1, §2

[4] = biological target: T4, MC3R (Homo sapiens, UniProt P41968); experiment: In vitro activity of MCR receptors, intracellular cAMP signal (HEK293T/MCR cell line), MC3R
T4 construct: expressed in transfected cells
T4 sequence (P41968 whole entry): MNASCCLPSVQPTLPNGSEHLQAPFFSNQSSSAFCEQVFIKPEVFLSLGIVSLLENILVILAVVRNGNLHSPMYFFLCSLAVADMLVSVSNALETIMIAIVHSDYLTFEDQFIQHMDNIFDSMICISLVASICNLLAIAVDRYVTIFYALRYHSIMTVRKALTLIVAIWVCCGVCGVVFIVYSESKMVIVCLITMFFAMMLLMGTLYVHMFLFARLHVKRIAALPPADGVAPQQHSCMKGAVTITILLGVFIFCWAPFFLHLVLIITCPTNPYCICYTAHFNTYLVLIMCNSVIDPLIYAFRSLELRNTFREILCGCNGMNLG
Experimental: as §1
as §2, with “minutes.” for “minutes. The test plate was placed in the Envision multifunctional microplate reader for reading, with a detection wavelength of 665/615 nm.”

[5] = cAMP, HEK293T/MCR cell line, read-out: MC5R EC50
[6] = cAMP, HEK293T/MCR cell line, read-out: MC1R EC50
[7] = cAMP, HEK293T/MCR cell line, read-out: MC4R EC50
[8] = cAMP, HEK293T/MCR cell line, read-out: MC3R EC50

Row | SMILES | pEC50 [1, 5] | pEC50 [2, 6] | pEC50 [3, 7] | pEC50 [4] | pEC50 [1] | pEC50 [2] | pEC50 [3] | pEC50 [4, 8]
1 | C[C@@H]1CN(C(=O)[C@@H]2CN(C3CCOCC3)C[C@H]2c2ccc(F)cc2F)C[C@H](C)N1c1ccc(F)c(F)c1 [Compound 14] | 6.04 | 6.24 | 8.00 | 6.17 |  |  |  | 
2 | C[C@@H]1CN(C(=O)C2CN(C(C)(C)C)CC2c2ccc(Cl)cc2)C[C@H](C)N1c1ccc(F)cc1 (single isomer, unassigned) [Compound 9] |  |  |  |  | 6.40 | 7.35 | 7.80 | 5.75
3 | C[C@@H]1CN(C(=O)[C@@H]2CN(C3CCOCC3)C[C@H]2c2ccc(F)cc2F)C[C@H](C)N1c1ccc(Cl)cc1 [Compound 15] | < 5.00 |  | 8.52 | 6.24 |  | 6.24 |  | 
4 | C[C@@H]1CN(C(=O)C2CN(c3ccc(C#N)cn3)CC2c2ccc(F)cc2F)C[C@H](C)N1c1ccc(F)cc1 (single isomer, unassigned) [Compound 12] |  |  |  |  | 6.13 | 6.63 | 9.70 | 8.30
5 | C[C@@H]1CN(C(=O)C2CN(C3CCOCC3)CC2c2ccc(Cl)cc2)C[C@H](C)N1c1ccc(F)cc1 (single isomer, unassigned) [Compound 16] |  |  |  |  | 5.93 | 6.78 | 8.22 | 6.60
6 | C[C@@H]1CN(C(=O)C2CN(C(C)(C)C)CC2c2ccc(F)cc2F)C[C@H](C)N1c1ccc(F)cc1 (single isomer, unassigned) [Compound 3] |  |  |  | 5.62 | < 5.00 | 6.52 | 7.52 | 
7 | C[C@@H]1CN(C(=O)[C@@H]2CN(C3CCCCC3)C[C@H]2c2ccc(F)cc2F)C[C@H](C)N1c1ccc(F)cc1 [Compound 18] | 5.86 | 7.54 | 8.40 | 6.70 |  |  |  | 
8 | C[C@@H]1CN(C(=O)[C@@H]2CN(C(C)(C)C)C[C@H]2c2ccc(F)cc2F)C[C@H](C)N1c1ccccn1 [Compound 1] |  |  |  |  | < 5.00 | 5.63 | 6.83 | < 5.00
9 | C[C@@H]1CN(C(=O)C2CN(c3ccccc3)CC2c2ccc(F)cc2F)C[C@H](C)N1c1ccc(F)cc1 (single isomer, unassigned) [Compound 13] |  |  |  |  | < 5.00 | < 5.00 | 7.30 | 5.48
10 | C[C@@H]1CN(C(=O)C2CN(C3CCOC(C)(C)C3)CC2c2ccc(F)cc2F)C[C@H](C)N1c1ccc(F)cc1 (single isomer, unassigned) [Compound 21b] | < 5.00 | 6.31 | 8.28 | 6.57 |  |  |  | 
11 | CCC(C)(C)N1CC(C(=O)N2C[C@@H](C)N(c3ccc(F)cc3)[C@@H](C)C2)[C@H](c2ccc(F)cc2F)C1 (stereo partly drawn) [Compound 23] | 5.71 | 7.24 | 8.40 | 6.50 |  |  |  | 
12 | C[C@@H]1CN(C(=O)C2CN(C(C)(C)C)CC2c2ccc(F)cc2F)C[C@H](C)N1c1ccc(C(F)(F)F)cc1 (single isomer, unassigned) [Compound 5] |  |  |  |  | < 5.00 | 6.05 | 7.46 | 5.46
13 | C[C@@H]1CN(C(=O)[C@@H]2CN(C(C)(C)C)C[C@H]2c2ccc(F)cc2F)C[C@H](C)N1c1ccccc1 [Hydrochloride salt of compound 6] | 5.94 | 7.10 | 7.62 | 5.69 |  |  |  | 
14 | C[C@@H]1CN(C(=O)[C@@H]2CN(C3CCC3)C[C@H]2c2ccc(F)cc2F)C[C@H](C)N1c1ccc(F)cc1 [Compound 17] | 5.09 | 7.26 | 8.17 | 5.96 |  |  |  | 
15 | CC1CC(N2CC(C(=O)N3C[C@@H](C)N(c4ccc(F)cc4)[C@@H](C)C3)C(c3ccc(F)cc3F)C2)CCO1 (single isomer, unassigned) [Compound 22a] | < 5.00 | 6.10 | 10.52 | 6.58 |  |  |  | 
16 | C[C@@H]1CN(C(=O)C2CN([C@H]3CCO[C@@H](C)C3)C[C@H]2c2ccc(F)cc2F)C[C@H](C)N1c1ccc(F)cc1 (stereo partly drawn) [Compound 22d] | < 5.00 | 6.97 | 8.72 | 6.16 |  |  |  | 
17 | C[C@@H]1CN(C(=O)C2CN(C3CCOC3)CC2c2ccc(F)cc2F)C[C@H](C)N1c1ccc(F)cc1 (single isomer, unassigned) [Compound 20a] | < 5.00 | 5.70 | 7.59 | 5.51 |  |  |  | 
18 | C[C@@H]1CN(C(=O)C2CN(c3cccnn3)CC2c2ccc(F)cc2F)C[C@H](C)N1c1ccc(F)cc1 (single isomer, unassigned) [Compound 11] |  |  |  |  | 5.67 | 7.09 | 9.40 | 7.59
